From patent EP0521435A2, “Method to promote the production of secondary metabolites in plant cell cultures” (B.A.T. Cigarettenfabriken GmbH, priority 1991, dated 1993)

Legend:
[1] = system: Rauwolfia canescens Zellkultur; assay: Induction of new indole alkaloids in cell culture; format: cell-based; details: 200 µmol/l; cultivated 6 further days; number of new alkaloids
From the text: (§1) B. Glukoseester, Aminosäure- oder andere Kohlenhydrataddukte eingesetzt werden.
Einer 4 Tage alten Rauwolfia canescens Zellkultur (LS-Medium) wird 3-Hydroxyjasmonat zu einer Endkonzentration von 200 µmol/l zugesetzt. Die Kultur wird 6 Tage weiterkultiviert und mit einer entsprechenden Kontrolle, der kein 3-Hydroxyjasmonat zugesetzt wurde, verglichen. Dabei zeigt sich, daß in dieser Zellkultur 6 Indolalkaloide gebildet werden, die in der Kontrollkultur nicht vorkommen.

Berberinbrückenenzym = assay: mRNA hybridisation with a probe against the berberine bridge enzyme after elicitation; format: cell-based, Eschscholtzia californica; details: elicited as in Beispiel 1
From the text: Zellkulturen von Eschscholtzia californica werden - wie in Beispiel 1 beschrieben - mit Methyljasmonat elicitiert. Nach Zugabe des Jasmonats werden im Abstand von je 1 Stunde Aliquots entnommen und die m-RNA extrahiert. Die m-RNA wird mit einer Probe gegen das Berberinbrückenenzym, ein Schlüsselenzym des Benzophenanthridin-Stoffwechsels, hybridisiert. […] Die so induzierte m-RNA ist ein Indiz für die Genaktivierung der an der Elicitierung und an der Alkaloidbiosynthese beteiligten Enzyme. Die Verbindungen der Formel (I) sind demnach in der Lage, reprimierte Sekundärstoffgene zu aktivieren.

[2] = system: Zellsuspensionskultur von Eschscholtzia californica; details: 20 umol/1; cultivated 5 further days; per litre culture medium
From the text: (§3) Die Zellkultur wird in Flüssigmedium kultiviert und kann entweder in entsprechenden Kulturgefäßen oder in Fermentern herangezogen werden. Nach einer Anwachsphase von 2 bis 10 Tagen wird dem Medium eine in Ethanol gelöste Verbindung der Formel (I) zugesetzt. […] Nach Bildung der maximalen Konzentration an Sekundärstoffen wird der Versuch durch Separierung der Zellen vom Medium abgebrochen und die Sekundärstoffe werden anschließend nach bekannten Verfahren aus dem Zellüberstand oder den Zellen isoliert.
(§4) Einer Zellsuspensionskultur von Eschscholtzia californica, die in 1 Liter LS-Nährmedium (Linsmaier, E. M., Skoog, F., Physiol. Plant 18, 100 (1965)) herangewachsen ist und deren Frischgewicht 200 g beträgt, wird Methyljasmonat zu einer Endkonzentration von 20 umol/1 zugesetzt. Die Kultur wird für 5 Tage weiterkultiviert, anschließend mit 200 ml salzsaurem Ethanol (1,7 ml HCI konz./1 I Ethanol) 2 Stunden lang bei 60 ° C extrahiert.

[3] = system: Zellsuspensionskultur von Eschscholtzia californica; assay: cells; details: 120 h, read-out: Steigerung der Benzophenanthridin-Produktion
From the text: as §3, §4

Kultur von Glycine max = assay: cells; details: 144 h, read-out: höhere Konzentration an Daidcein- und Genistein-Glycosiden
Description: Die Zellkultur wird in Flüssigmedium kultiviert und kann entweder in entsprechenden Kulturgefäßen oder in Fermentern herangezogen werden. Nach einer Anwachsphase von 2 bis 10 Tagen wird dem Medium eine in Ethanol gelöste Verbindung der Formel (I) zugesetzt.
Eine Kultur von Glycine max wird mit 330 g Frischgewicht in 1 Liter 4x-Medium (Gamborg, Miller, Ojima, Experiment Research 50, 151 - 158 (1968)), 2,4-D 2 mg/I, NES 0,5 mg/I, IES 0,5 mg/I, Kinetin 0,2 mg/I versetzt. 3 Tage später wird Methyljasmonat zu einer Endkonzentration von 250 umol/1 zugesetzt. Nach einer Kultivierungsperiode von 6 Tagen wird die Kultur mit Methanol extrahiert (50 g Frischgewicht/200 ml Methanol; 2 Stunden, 60 ° C).

[4] = system: Kultur von Rauwolfia serpentina; assay: Elicitation of vallesiachotamine in cell culture; format: cell-based; details: 200 umol/1, cultivated 4 further days
Description: as §1
Eine Kultur von Rauwolfia serpentina, in LS-Medium 3 Tage gewachsen, wird zu einer Endkonzentration von 200 umol/1 mit Jasmonsäure versetzt und 4 Tage weiterkultiviert. Der methanolische Extrakt des Gewebes enthält eine 8-fache Vallesiacotamin-Konzentration gegenüber der Kontrolle. Der Absolutwert ist 70 mg/I Medium.

[5] = system: Kultur von Ruta chalepensis; assay: Elicitation of rutacridone in cell culture; format: cell-based; details: 40 µmol/l; cultivated 5 further days; methanol extract
From the text: as §1
Eine 2 Tage alte Kultur von Ruta chalepensis (4x-Medium) wird mit Jasmonatglukosid zu einer Endkonzentration von 40 µmol/l versetzt, für 5 Tage weiterkultiviert und mit Methanol extrahiert. Der Extrakt zeigt einen 18-fachen Rutacridon-Gehalt gegenüber der Kontrolle.

[6] = system: Zellkultur von Lactuca sativa; assay: Elicitation of lettucenin A in cell culture; format: cell-based; details: 250 µmol/l; extraction 6 days later; not detectable in control culture
Description: as §1
Eine Zellkultur von Lactuca sativa wird 24 Stunden nach dem Überimpfen in LS-Medium mit 3-Hydroxyjasmonsäure zu einer Endkonzentration von 250 µmol/l versetzt. Die Extraktion mit Methanol erfolgt 6 Tage später. Die elicitierten Kulturen enthalten das Custonolid Lettucenin A in einer Konzentration von ca. 30 mg/I. In den Extrakten einer Kontrollkultur ist Lettucenin A nicht nachweisbar.

[7] = system: Kultur von Rubia tinctorum; assay: Elicitation of anthraquinones (alizarin) in cell culture; format: cell-based; details: added after 4 days, harvested after 7 days; concentration not given
From the text: as §1
Eine Kultur von Rubia tinctorum wird in LS-Medium kultiviert. Nach 4 Tagen werden der Kultur 2',3'-Dihydrojasmonat zugesetzt. Nach 7 Tagen wird die Kultur geerntet und der Anthrachinon-Gehalt bestimmt. Der Zuwachs an Alizarin beträgt das ca. 40-fache gegenüber der Kontrolle.

Digitalis purpurea = format: cell-based; details: concentration of elicitor not given
From the text: (§2) Weitere Beispiele sind: Digitalis purpurea: Cardenoloide, die unter dem Einfluß von Jasmonat gegenüber der Kontrolle eine 2-fach gesteigerte Konzentration erreichen; Linum hirsutum: Lignane, die 2,5-fach gesteigert sind; Gossypium herbaceum: Gossipol, 10-fach gesteigert gegenüber der Kontrolle; isolierte Wurzelkulturen von Hyoscyamus alba: Hyoscyamin/Scopolamin: stark parasympatholytische bzw. zentraldämpfende, medizinisch wertvolle Alkaloide, 12-fache Steigerung gegenüber der Kontrolle; Zellkulturen von Colchicum autumnale, die das Gichtmittel Colchicin produzieren, 8-fache Steigerung gegenüber der Kontrolle; Zellkulturen von Cephaelis ipecacuanha, die das arzneilich genutzte Emetin produzieren, das bei Keuchhusten und Bronchialasthma sowie als erbrechungsförderndes Mittel Anwendung findet, 7,5-fache Steigerung gegenüber der Kontrolle; Zellkulturen von Cinchona succirubra bzw. Cinchona ledgeriana, die medizinisch als Antiarhythmikum bzw. als Chemotherapeutikum (Malaria) eingesetzt werden, Steigerung 14-fach; Zellkulturen von Rauwolfia serpentina, die die therapeutisch genutzten Indolalkaloide Reserpin (blutdrucksenkend, sedierend), Serpentin (blutdrucksenkend), Ajmalin (bei Herzrhythmusstörungen), Ajmalicin (Gehirn-durchblutungsfördernd), Yohimbin (durchblutungsfördernd) produzieren.
as §1

Gossypium herbaceum = format: cell-based; details: concentration of elicitor not given
From the text: as §2, §1

[8] = system: Zellkulturen von Cephaelis ipecacuanha; format: cell-based; details: concentration of elicitor not given
From the text: as §2, §1

[9] = system: Zellkulturen von Colchicum autumnale; format: cell-based; details: concentration of elicitor not given
From the text: as §2, §1

[10] = system: isolierte Wurzelkulturen von Hyoscyamus alba; format: cell-based; details: isolated root cultures; concentration of elicitor not given
From the text: as §2, §1

Linum hirsutum = assay: Elicitation of lignans; format: cell-based; details: versus control; concentration of elicitor not given
From the text: as §2, §1

[11] = system: Zellkulturen von Cinchona succirubra bzw. Cinchona ledgeriana; assay: Elicitation of secondary metabolites in Cinchona cell cultures; format: cell-based; details: product not named in b24 (Chinidin und Chinin according to b23); concentration of elicitor not given
From the text: Beispiele für Sekundärstoffe, die durch das erfindungsgemäße Verfahren produziert werden können, sind: Atropin und Scopolamin, isoliert aus Hyoscyamus- und Datura-Wurzelkulturen, Colchicin aus Herbstzeitlose, Emetin aus Zell- und Wurzelkulturen der Brechwurz, Codein und Morphin aus Zellkulturen des Schlafmohns, Chinidin und Chinin aus Zellkulturen von Cinchona succirubra bzw. Cinchona ledgeriana, Ajmalin, Rescinamin, Reserpin aus Zellkulturen von Rauwolfia-Arten. Diese Substanzen werden arzneilich eingesetzt. Insbesondere sind also die Stoffgruppen der Indolalkaloide, der Isochinolinalkaloide, der Lignane und Isoprenoide zu nennen. […]

3-Hydroxyjasmonat was tested. Which “Indolalkaloide gebildet, die in der Kontrollkultur nicht vorkommen” value [1] did it give?
Its value is 6.

CCC=CCC1C(=O)CCC1CC(=O)OC (stereo not drawn) [Methyljasmonat] was tested. Which “spezifische m-RNA-Menge” value (Berberinbrückenenzym; in 2 hours after addition, versus control culture) did it give?
Its value is “verdoppelt”.

And the “spezifische m-RNA-Menge” value (Berberinbrückenenzym; in 10 hours after addition, then decreases again)?
The value was “weiter ansteigt”.

What about the “Gesamtausbeute der Kultur, Benzophenanthridine pro Liter Kulturmedium” value [2] of the same compound?
The value was 300 mg.

What about the fold induction at 20 µM [3] of the same compound?
The fold induction at 20 µM was 15.

And the fold induction at 250 µM (Kultur von Glycine max)?
The fold induction at 250 µM was about 30.

Which results are given for CCC=CCC1C(=O)CCC1CC(=O)O (stereo not drawn) [Jasmonsäure]?
Vallesiacotamin-Konzentration, Absolutwert [4]: 70 mg/I Medium; fold induction at 200 µM ([4]; Rauvolfia serpentina, 96 h, methanolic extract of the tissue, read-out: Vallesiacotamin-Konzentration gegenüber der Kontrolle): 8

For Jasmonatglukosid, which “Rutacridon-Gehalt gegenüber der Kontrolle” value [5] is on record?
The value was 18 -fach.

With 3-Hydroxyjasmonsäure as the compound, how does the “Lettucenin A Konzentration” value [6] read?
Its value is “ca. 30 mg/I”.

2',3'-Dihydrojasmonat was tested. Which “Zuwachs an Alizarin gegenüber der Kontrolle” value [7] did it give?
The value was “ca. 40 -fach”.

Which results are given for CC/C=C\C[C@H]1C(=O)CC[C@@H]1CC(=O)O [Jasmonat]?
Cardenoloide, gesteigerte Konzentration gegenüber der Kontrolle (Digitalis purpurea): 2 -fach; Gossipol gesteigert gegenüber der Kontrolle (Gossypium herbaceum): 10 -fach; Emetin Steigerung gegenüber der Kontrolle [8]: 7,5 -fach; Colchicin Steigerung gegenüber der Kontrolle [9]: 8 -fach; Hyoscyamin/Scopolamin Steigerung gegenüber der Kontrolle [10]: 12 -fach; Lignane gesteigert (Linum hirsutum): 2,5 -fach; Steigerung [11]: 14 -fach
